This assay relates to AK. Nature of the assay: AK activity of cell-free extracts, with and without L-lysine (method of Stadtman). The format is biochemical, Methylophilus methylotrophus. To be noted: L-lysine alone. The method, then: Cell-free extracts were prepared from the Methylophilus methylotrophus AS1 strain containing the RSFD80 plasmid (also referred to as “AS1/RSFD80” hereinafter) and the Methylophilus methylotrophus AS1 strain containing the pRS plasmid (also referred to as “AS1/pRS” hereinafter), and AK activity was measured. The cell-free extracts (crude enzyme solutions) were prepared as follows. The AS1/RSFD80 strain and AS1/pRS strain were each inoculated to 121 production medium of the above composition containing 20 mg/L of streptomycin, cultured at 37° C. for 34 hours with shaking, and then calcium carbonate was removed and cells were harvested.
The bacterial cells obtained as described above were washed with 0.2% KCl under a condition of 0° C., suspended in 20 mM potassium phosphate buffer (pH 7) containing 10 mM MgSO4, 0.8 M (NH4)2SO4 and 0.03 M β-mercaptoethanol, and disrupted by sonication (0° C., 200 W, 10 minutes). […]
The measurement of AK activity was performed in accordance with the method of Stadtman (Stadtman, E. R., Cohen, G. N., LeBras, G., and Robichon-Szulmajster, H., J. Biol. Chem., 236, 2033 (1961)). […] The reaction solution was centrifuged, and absorbance of the supernatant was measured at 540 nm. […] When the enzymatic activity was measured, L-lysine was added to the enzymatic reaction solution at various concentrations to examine degree of inhibition by L-lysine.

`NCCCC[C@H](N)C(=O)O` [L-lysine]: the “inhibition of AK originally retained by the AS1 strain” value is recorded as “not inhibited”.

The values are drawn from patent US7223572B1, “Methylophilus methylotrophus having enhanced dihydrodipicolinate synthase and/or aspartokinase activity for L-amino acid production” (Ajinomoto Co., Inc., priority 1999, dated 2007).
